Here are results for nine molecules from patent US10196364B2, “Pyrimidine carboxamides as sodium channel blockers” (Purdue Pharma L.P., priority 2013, dated 2019).

For test [1], the target named is Nav1.3 (Homo sapiens, UniProt Q9NY46). The conditions noted are these: read-out: TTX IC50; cited from earlier work.
Test [2] has as its target Nav1.8 (Homo sapiens, UniProt Q9Y5Y9). The conditions noted are these: read-out: TTX IC50; cited from earlier work.
For test [3], the target named is hNav1.7 (Homo sapiens, UniProt Q15858). The experiment in a line: Electrophysiology (EP) whole-cell patch clamp assay in hNav1.7 expressing HEK-293 cells. The conditions noted are these: Table 7; affinity for inactivated channels; read-out: Nav1.7 Activity (μM) EP assay Ki. The test is classed as cell-based. The procedure:
The hNav1.7 expressing HEK-293 cells were plated on 35 mm culture dishes pre-coated with poly-D-lysine in standard DMEM culture media (Mediatech, Inc., Herndon, Va.) and incubated in a 5% CO2 incubator at 37° C. Cultured cells were used approximately 12-48 h after plating.
On the day of experimentation, the 35 mm dish was placed on the stage of an inverted microscope equipped with a perfusion system that continuously perfuses the culture dish with fresh recording media. A gravity driven superfusion system was used to apply test solutions directly to the cell under evaluation. This system consists of an array of glass pipette glass connected to a motorized horizontal translator. The outlet of the shooter was positioned approximately 100 μm from the cell of interest.
Whole cell currents were recorded using the whole-cell patch clamp configuration using an Axopatch 200B amplifier (Axon Instruments, Foster City Calif.), 1322A A/D converter (Axon Instruments) and pClamp software (v. 8; Axon Instruments) and stored on a personal computer. Gigaseals were formed and the whole-cell configuration was established in voltage clamp mode, and membrane currents generated by hNav1.7 were recorded in gap-free mode. Borosilicate glass pipettes have resistance values between 1.5 and 2.0 MΩ when filled with pipette solution and series resistance (<5 MΩ) was compensated 75-80%. Signals were sampled at 50 kHz and low pass filtered at 3 kHz.
After establishing the whole-cell configuration in voltage clamp mode, two voltage protocols were run to establish: 1) the holding potential; and 2) the test potential for each cell.
To determine a membrane potential at which the majority of channels are in the resting state, a standard steady-state inactivation (SSIN) protocol was run using 100 ms prepulses×10 mV depolarizing steps. The holding potential for testing resting block (Vh1) was 20 mV more hyperpolarized than the first potential where inactivation is observed with the inactivation protocol.
From this holding potential a standard I-V protocol was run to determine the potential at which the maximal current (Imax) was elicited. This potential was the test potential (Vt).
The compound testing protocol was a series of 10 ms depolarizations from the Vh1 (determined from the SSIN) to the Vt (determined from the I-V protocol) repeated every 10-15 seconds. […] Washout of the compound was attempted by superfusing with control solution once steady-state block was observed. The fractional response was calculated as follows: FR=I(after drug)/I(control), where I is the peak current amplitude and was used for estimating resting block dissociation constant, Kr: Kr=[drug]*{FR/(1−FR)}, where [drug] is the concentration of a drug.
To assess the block of inactivated channels the holding potential was depolarized such that 20-50% of the current amplitude was reduced when pulsed to the same Vt as above. The magnitude of this depolarization depends upon the initial current amplitude and the rate of current loss due to slow inactivation. This was the second holding potential (Vh2). The current reduction was recorded to determine the fraction of available channels at this potential (h). h=I@Vh2/Imax.
At this membrane voltage a proportion of channels are in the inactivated state, and thus inhibition by a blocker includes interaction with both resting and inactivated channels.
To determine the potency of the test compound on inactivated channels, a series of currents were elicited by 10 ms voltage steps from Vh2 to Vt every 10-15 seconds. After establishing a stable baseline, the low concentration of the compound was applied. Multiple cumulative concentrations may have to be applied to identify a concentration that will block between 40-60% of the current. Washout was attempted to re-establish baseline. Fractional responses were measured with respect to a projected baseline to determine Kapp. Kapp=[drug]*{FR/(1−FR)}, where [drug] is the concentration of a drug. […]
(Patch clamp records ionic current or voltage across a cell membrane.)

The target of test [4] is human Nav1.7 (Homo sapiens, UniProt Q15858). The experiment in a line: FLIPR membrane potential dye assay (alternative fluorescence assay) in Nav1.7 expressing cells. The test is classed as cell-based. Particulars: Table 7.
Chain of human Nav1.7 (Q15858 1-1977 isoform Q15858-3): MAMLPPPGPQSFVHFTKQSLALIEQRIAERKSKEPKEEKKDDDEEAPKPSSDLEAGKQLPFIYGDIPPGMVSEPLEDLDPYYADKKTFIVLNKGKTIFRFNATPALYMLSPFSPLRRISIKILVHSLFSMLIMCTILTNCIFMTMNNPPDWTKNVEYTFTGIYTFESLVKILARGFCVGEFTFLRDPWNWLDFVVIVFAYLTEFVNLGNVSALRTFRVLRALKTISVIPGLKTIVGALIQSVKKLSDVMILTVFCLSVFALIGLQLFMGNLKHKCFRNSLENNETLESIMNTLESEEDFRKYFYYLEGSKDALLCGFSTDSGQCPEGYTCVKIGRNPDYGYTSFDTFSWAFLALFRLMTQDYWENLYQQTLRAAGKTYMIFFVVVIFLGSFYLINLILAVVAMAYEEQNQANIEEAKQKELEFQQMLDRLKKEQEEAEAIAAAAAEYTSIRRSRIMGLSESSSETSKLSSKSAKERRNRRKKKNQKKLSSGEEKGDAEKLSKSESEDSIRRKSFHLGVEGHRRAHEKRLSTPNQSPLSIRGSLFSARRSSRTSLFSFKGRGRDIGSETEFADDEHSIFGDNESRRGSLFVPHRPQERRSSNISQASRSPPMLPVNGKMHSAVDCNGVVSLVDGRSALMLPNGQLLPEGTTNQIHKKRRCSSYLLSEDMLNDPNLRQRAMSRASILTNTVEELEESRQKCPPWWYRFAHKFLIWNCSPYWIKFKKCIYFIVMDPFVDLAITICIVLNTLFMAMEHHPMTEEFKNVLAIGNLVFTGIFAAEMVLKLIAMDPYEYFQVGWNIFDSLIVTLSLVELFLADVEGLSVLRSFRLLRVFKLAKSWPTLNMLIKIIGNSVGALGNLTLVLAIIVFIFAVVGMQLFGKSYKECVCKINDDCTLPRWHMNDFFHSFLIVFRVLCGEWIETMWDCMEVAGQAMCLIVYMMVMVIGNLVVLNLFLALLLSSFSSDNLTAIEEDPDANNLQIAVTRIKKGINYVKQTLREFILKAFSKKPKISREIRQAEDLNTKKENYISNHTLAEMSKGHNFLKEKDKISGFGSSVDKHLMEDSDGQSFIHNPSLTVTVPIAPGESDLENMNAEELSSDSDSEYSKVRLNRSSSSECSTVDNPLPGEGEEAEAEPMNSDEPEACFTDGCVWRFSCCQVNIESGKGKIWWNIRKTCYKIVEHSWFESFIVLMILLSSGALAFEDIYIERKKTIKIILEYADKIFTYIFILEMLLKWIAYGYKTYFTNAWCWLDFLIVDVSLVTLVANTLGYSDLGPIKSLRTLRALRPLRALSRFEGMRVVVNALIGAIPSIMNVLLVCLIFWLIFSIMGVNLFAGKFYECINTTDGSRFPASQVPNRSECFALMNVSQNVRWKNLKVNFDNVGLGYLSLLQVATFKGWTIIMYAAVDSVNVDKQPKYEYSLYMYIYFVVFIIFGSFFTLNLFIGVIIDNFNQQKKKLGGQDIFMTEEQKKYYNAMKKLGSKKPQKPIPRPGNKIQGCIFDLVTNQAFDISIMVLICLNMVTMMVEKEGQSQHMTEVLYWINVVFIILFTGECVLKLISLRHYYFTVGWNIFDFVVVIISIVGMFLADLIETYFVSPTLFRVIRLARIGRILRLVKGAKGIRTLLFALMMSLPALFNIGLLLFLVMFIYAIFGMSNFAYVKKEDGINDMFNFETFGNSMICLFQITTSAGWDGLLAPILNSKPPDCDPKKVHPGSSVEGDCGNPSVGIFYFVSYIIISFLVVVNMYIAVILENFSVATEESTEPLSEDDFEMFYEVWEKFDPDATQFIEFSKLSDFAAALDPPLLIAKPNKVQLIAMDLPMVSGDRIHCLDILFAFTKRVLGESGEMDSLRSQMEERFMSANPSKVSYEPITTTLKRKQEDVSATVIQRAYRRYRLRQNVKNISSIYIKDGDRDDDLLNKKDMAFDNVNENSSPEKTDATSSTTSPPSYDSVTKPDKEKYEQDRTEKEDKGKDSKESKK
Test [5] concerns SNL-induced mechanical hyperalgesia. The experiment in a line: SNL-induced mechanical hyperalgesia model in rats (paw pressure test, PWT). The test is classed as in vivo, rat. Particulars: dosed orally at 100 mg/kg (vehicle: 0.5% methyl cellulose) one hour before testing. As for the experimental part: Each experiment uses rats weighing between 200-260 g at the start of the experiment. The rats are group-housed and have free access to food and water at all times, except prior to oral administration of a test compound when food is removed for 16 h before dosing. A control group acts as a comparison to rats treated with a Compound of the Disclosure. The control group is administered the carrier as used for the test compound. The volume of carrier administered to the control group is the same as the volume of carrier and test compound administered to the test group. In the Chung model, the spinal nerve ligation (SNL) model of neuropathic pain is used to produce mechanical hyperalgesia, thermal hyperalgesia, and tactile allodynia in rats. Surgery is performed under isoflurane/O2 inhalation anesthesia. Following induction of anesthesia a 3 cm incision is made and the left paraspinal muscles are separated from the spinous process at the L4-S2 levels. The L6 transverse process is carefully removed with a pair of small rongeurs to identify visually the L4-L6 spinal nerves. […] The animals are assessed for response to noxious mechanical stimuli by determining PWT, as described below, prior to surgery (baseline), then immediately prior to and 1, 3, and 5 hours after being administered a Compound of the Disclosure or vehicle, for the left rear paw of the animal. The animals can also be assessed for response to noxious thermal stimuli or for tactile allodynia, as described below. […] Sensitivity to noxious mechanical stimuli was measured in animals using the paw pressure test to assess mechanical hyperalgesia. In rats, hind paw withdrawal thresholds (“PWT”), measured in grams, in response to a noxious mechanical stimulus were determined using an analgesymeter (Model 7200, commercially available from Ugo Basile of Italy), as described in Stein (Biochemistry & Behavior 31: 451-455 (1988)). […] PWT was determined once for each rat at each time point. PWT can be measured only in the injured paw, or in both the injured and non-injured paw. […]

Chain of hNav1.7 (Q15858 1-1977 isoform Q15858-3): as above
Chain of Nav1.8 (Q9Y5Y9 whole entry, looked up): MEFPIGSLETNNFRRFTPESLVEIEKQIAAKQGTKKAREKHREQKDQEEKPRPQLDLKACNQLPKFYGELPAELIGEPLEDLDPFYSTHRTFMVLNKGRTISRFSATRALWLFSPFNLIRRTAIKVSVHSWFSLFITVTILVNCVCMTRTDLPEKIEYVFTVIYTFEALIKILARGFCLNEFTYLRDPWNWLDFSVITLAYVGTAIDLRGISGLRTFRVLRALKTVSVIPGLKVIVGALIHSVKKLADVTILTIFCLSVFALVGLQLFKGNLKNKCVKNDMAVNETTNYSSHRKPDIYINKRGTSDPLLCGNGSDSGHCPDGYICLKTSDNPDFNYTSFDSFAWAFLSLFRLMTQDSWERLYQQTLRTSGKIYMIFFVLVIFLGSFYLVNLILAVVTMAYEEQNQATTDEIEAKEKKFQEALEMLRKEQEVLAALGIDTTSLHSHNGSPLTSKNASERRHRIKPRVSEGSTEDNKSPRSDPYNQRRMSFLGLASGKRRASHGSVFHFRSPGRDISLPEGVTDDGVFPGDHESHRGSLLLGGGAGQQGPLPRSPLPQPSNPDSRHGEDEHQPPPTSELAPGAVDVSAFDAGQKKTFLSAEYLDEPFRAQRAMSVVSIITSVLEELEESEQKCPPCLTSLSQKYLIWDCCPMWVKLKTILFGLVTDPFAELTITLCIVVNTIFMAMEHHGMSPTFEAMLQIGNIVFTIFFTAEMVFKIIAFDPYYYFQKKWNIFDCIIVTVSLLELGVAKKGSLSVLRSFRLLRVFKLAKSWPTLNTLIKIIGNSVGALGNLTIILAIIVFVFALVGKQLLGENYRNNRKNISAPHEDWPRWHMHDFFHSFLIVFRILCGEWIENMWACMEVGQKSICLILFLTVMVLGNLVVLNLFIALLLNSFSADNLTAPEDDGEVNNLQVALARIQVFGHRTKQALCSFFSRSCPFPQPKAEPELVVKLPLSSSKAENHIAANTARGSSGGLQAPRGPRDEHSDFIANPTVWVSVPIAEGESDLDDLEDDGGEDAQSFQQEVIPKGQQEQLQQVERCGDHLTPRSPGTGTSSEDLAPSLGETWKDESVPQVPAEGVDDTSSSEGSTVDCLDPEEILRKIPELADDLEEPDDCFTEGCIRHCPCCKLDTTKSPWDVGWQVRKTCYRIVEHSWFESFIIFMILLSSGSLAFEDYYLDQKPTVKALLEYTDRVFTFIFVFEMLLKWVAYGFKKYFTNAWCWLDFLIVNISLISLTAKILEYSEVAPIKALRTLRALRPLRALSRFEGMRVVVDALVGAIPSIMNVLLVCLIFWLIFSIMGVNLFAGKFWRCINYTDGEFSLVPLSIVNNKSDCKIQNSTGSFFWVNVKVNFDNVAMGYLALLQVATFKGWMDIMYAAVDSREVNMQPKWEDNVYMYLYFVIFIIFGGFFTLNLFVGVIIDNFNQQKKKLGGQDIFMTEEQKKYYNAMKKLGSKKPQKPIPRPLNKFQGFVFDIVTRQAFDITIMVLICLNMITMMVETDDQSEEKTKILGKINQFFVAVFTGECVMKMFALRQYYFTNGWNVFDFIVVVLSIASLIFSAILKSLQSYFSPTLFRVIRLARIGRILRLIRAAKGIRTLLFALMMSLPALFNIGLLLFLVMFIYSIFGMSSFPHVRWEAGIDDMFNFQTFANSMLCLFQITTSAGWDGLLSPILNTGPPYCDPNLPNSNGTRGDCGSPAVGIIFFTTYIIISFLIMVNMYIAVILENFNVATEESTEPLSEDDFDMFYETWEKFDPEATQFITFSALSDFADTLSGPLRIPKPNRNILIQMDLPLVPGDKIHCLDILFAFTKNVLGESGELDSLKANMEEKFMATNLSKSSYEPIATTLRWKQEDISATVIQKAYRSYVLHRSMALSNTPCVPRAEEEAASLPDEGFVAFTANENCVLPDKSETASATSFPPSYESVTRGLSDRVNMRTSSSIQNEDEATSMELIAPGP

Regarding `NC1=N[C@H](O)[C@H]2[C@H]3O[C@]4(O)O[C@@H]([C@@H](O)[C@@]2(N1)[C@@H]4O)[C@]3(O)CO` [TTX, tetrodotoxin], the IC50 in test [1] is 15 nM; in test [2] it was 50000 nM.

As to `NC(=O)c1cc(O[C@H]2CCNC2=O)nc(N2[C@@H]3CC[C@H]2C[C@@H](Oc2ccc(C(F)(F)F)cn2)C3)n1` [Cpd No. 224, 6-(((S)-2-oxopyrrolidin-3-yl)oxy)-2-((1R,3S,5S)-3-((5-(trifluoromethyl)pyridin-2-yl)oxy)-8-azabicyclo[3.2.1]octan-8-yl)pyrimidine-4-carboxamide], in test [3], the Ki was 0.81 µM. In test [4], this molecule came in with an IC50 of 1.01 µM.

Turning to `NC(=O)c1cc(O[C@H]2CCNC2=O)nc(-c2ccc(Cc3ccc(C(F)(F)F)cn3)cc2)n1` [Cpd No. 229, (S)-6-((2-oxopyrrolidin-3-yl)oxy)-2-(4-((5-(trifluoromethyl)pyridin-2-yl)methyl)phenyl)pyrimidine-4-carboxamide], the Ki in test [3] was 0.62 µM. In test [4], this molecule showed an IC50 of 0.58 µM.

In the case of `C[C@H](Nc1cc(C(N)=O)nc(-c2ccc(Cc3ccc(C(F)(F)F)cn3)cc2)n1)C(N)=O` [Cpd No. 228, (S)-6-((1-amino-1-oxopropan-2-yl)amino)-2-(4-((5-(trifluoro-methyl)pyridin-2-yl)methyl)-phenyl)pyrimidine-4-carboxamide], the Ki in test [3] worked out at 1.1 µM. Further, the concentration for half-maximal inhibition (IC50) in test [4] was 1.1 µM.

Regarding `C[C@H](Oc1cc(C(N)=O)nc(-c2ccc(Oc3ccc(C(F)(F)F)cc3)cc2)n1)C(N)=O` [compound 98], the “SNL-induced mechanical hyperalgesia in rats” value in test [5] is “reduced SNL-induced mechanical hyperalgesia”.

On to `CCN(CC)Cc1cc(C(F)(F)F)ccc1Oc1ccc(-c2nc(N[C@H](C)C(N)=O)cc(C(N)=O)n2)cc1` [Cpd No. 215, (R)-6-((1-amino-1-oxopropan-2-yl)amino)-2-(4-(2-((diethylamino)methyl)-4-(trifluoromethyl)phenoxy)phenyl)pyrimidine-4-carboxamide], for which the Ki in test [3] worked out at 1.39 µM. The IC50 in test [4] amounted to 7.35 µM.

Take `NC(=O)c1cc(N[C@H]2CCNC2=O)nc(-c2ccc(Oc3ccc(C(F)(F)F)cn3)cc2)n1` [compound 99, (S)-6-((2-oxopyrrolidin-3-yl)amino)-2-(4-((5-(trifluoromethyl)pyridin-2-yl)oxy)phenyl)pyrimidine-4-carboxamide]: the “SNL-induced mechanical hyperalgesia in rats” value in test [5] is reported as “reduced SNL-induced mechanical hyperalgesia”.

Take `C[C@H](Nc1cc(C(N)=O)nc(-c2ccc(Oc3ccc(OC(F)(F)F)cc3)cc2)n1)C(N)=O` [Cpd No. 84, (S)-6-((1-amino-1-oxopropan-2-yl)amino)-2-(4-(4-(trifluoromethoxy)phenoxy)phenyl)pyrimidine-4-carboxamide]: the “SNL-induced mechanical hyperalgesia in rats” value in test [5] is given as “reduced SNL-induced mechanical hyperalgesia”.

For `NC(=O)c1cc(O[C@H]2CCNC2=O)nc(-c2ccc(Oc3ccc(C(F)(F)F)cn3)cc2)n1` [Cpd No. 227, (S)-6-((2-oxopyrrolidin-3-yl)oxy)-2-(4-((5-(trifluoro-methyl)pyridin-2-yl)oxy)phenyl)pyrimidine-4-carboxamide], in test [3], the Ki is 0.15 µM. Besides, in test [4], the IC50 was 0.55 µM.

What is called IC50 is the concentration that gives 50% inhibition.
